Source: publication PMC9090415, “Discovery of small molecule inhibitors of Plasmodium falciparum apicoplast DNA polymerase” (Journal of Enzyme Inhibition and Medicinal Chemistry, 2022)

Target: P. falciparum apicoplast DNA polymerase (Pf-apPOL) (Plasmodium falciparum, UniProt Q8ILY1)
Experiment: Fluorescence-based high-throughput DNA polymerase assay (molecular beacon), primary screen and dose-response;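 for % inhibition ApPOL 90': test concentration in µM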;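 for % inhibition apPOL 180': test concentration in µM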
Assay type: biochemical
Conditions: for DNA Pol: 90 min, 10 µM; for % inhibition Apo pol 5': DRC-2, 5'
Outline: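 Single-point screening used 10 µM compound with 20 nM polymerase, 20 nM hairpin substrate and 6 µM dNTPs for 90 min at 25 °C. Confirmatory titrations (2.5–80 µM) followed fluorescence at three times, and IC50 was derived from a fit including a cooperativity term n.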

Sequence of P. falciparum apicoplast DNA polymerase (Pf-apPOL) (Q8ILY1 entry or part of it): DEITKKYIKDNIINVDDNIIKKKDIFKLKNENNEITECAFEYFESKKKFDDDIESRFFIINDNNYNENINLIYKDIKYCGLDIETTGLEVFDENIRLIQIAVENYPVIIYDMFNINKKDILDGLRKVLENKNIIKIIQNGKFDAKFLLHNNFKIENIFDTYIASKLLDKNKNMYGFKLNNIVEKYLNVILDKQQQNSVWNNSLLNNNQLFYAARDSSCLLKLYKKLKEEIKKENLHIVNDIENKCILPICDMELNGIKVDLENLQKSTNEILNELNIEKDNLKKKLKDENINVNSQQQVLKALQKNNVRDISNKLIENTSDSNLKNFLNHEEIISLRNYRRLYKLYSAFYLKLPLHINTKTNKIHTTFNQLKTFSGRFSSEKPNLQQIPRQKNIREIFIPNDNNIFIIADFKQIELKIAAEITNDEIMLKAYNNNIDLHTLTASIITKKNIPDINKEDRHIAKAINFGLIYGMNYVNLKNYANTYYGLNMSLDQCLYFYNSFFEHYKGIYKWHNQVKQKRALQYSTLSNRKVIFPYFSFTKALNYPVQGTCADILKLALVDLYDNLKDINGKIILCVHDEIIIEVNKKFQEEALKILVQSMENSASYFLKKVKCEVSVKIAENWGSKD

For `CN(C)C=C1SCc2ccccc2C1=O` [Molecule 77, CN(C=C1SCc2c(C1=O)cccc2)C], the “DNA Pol” value ('DNA Pol', screening value, unit not given) was 85, the “% inhibition Apo pol 10'” value (DRC-1, concentration 2.5) was 11.5763% and the “% inhibition Apo pol 10'” value (DRC-1, concentration 5) was 16.7667%. The “% inhibition Apo pol 10'” value (DRC-1, concentration 10) was 31.6418%, the “% inhibition Apo pol 10'” value (DRC-1, concentration 20) was 51.9221% and the “% inhibition Apo pol 10'” value (DRC-1, concentration 40) was 56.5642%. The “% inhibition Apo pol 10'” value (DRC-1, concentration 80) was 84.5209%, the “% inhibition Apol 90'” value (DRC-1, 90', concentration 2.5) was 2.782% and the “% inhibition Apol 90'” value (DRC-1, 90', concentration 5) was 3.396%. For the same molecule, the “% inhibition Apol 90'” value (DRC-1, 90', concentration 10) was 10.9684%, the “% inhibition Apol 90'” value (DRC-1, 90', concentration 20) was 24.755% and the “% inhibition Apol 90'” value (DRC-1, 90', concentration 40) was 26.7268%. For the same molecule, the “% inhibition Apol 90'” value (DRC-1, 90', concentration 80) was 62.9199%, the “% inhibition apPOL 180'” value (DRC-1, 180', concentration 2.5) was -2.727% and the “% inhibition apPOL 180'” value (DRC-1, 180', concentration 5) was -5.416%. For the same molecule, the “% inhibition apPOL 180'” value (DRC-1, 180', concentration 10) was 0.7299%, the “% inhibition apPOL 180'” value (DRC-1, 180', concentration 20) was 8.887% and the “% inhibition apPOL 180'” value (DRC-1, 180', concentration 40) was 10.8248%. For the same molecule, the “% inhibition apPOL 180'” value (DRC-1, 180', concentration 80) was 43.5104%, the “% inhibition Apo pol 5'” value (concentration 2.5) was 2.65% and the “% inhibition Apo pol 5'” value (concentration 5) was 5.48%. For the same molecule, the “% inhibition Apo pol 5'” value (concentration 10) was 20%, the “% inhibition Apo pol 5'” value (concentration 20) was 33% and the “% inhibition Apo pol 5'” value (concentration 40) was 41%. For the same molecule, the “% inhibition Apo pol 5'” value (concentration 80) was 52%, the “% inhibition Apol 40'” value (DRC-2, 40', concentration 2.5) was 2% and the “% inhibition Apol 40'” value (DRC-2, 40', concentration 5) was 4%. The “% inhibition Apol 40'” value (DRC-2, 40', concentration 10) was 13%, the “% inhibition Apol 40'” value (DRC-2, 40', concentration 20) was 26% and the “% inhibition Apol 40'” value (DRC-2, 40', concentration 40) was 34%. The “% inhibition Apol 40'” value (DRC-2, 40', concentration 80) was 57%, the “% inhibition ApPOL 90'” value (DRC-2, 90', concentration 2.5) was 0.807% and the “% inhibition ApPOL 90'” value (DRC-2, 90', concentration 5) was 1%. For the same molecule, the “% inhibition ApPOL 90'” value (DRC-2, 90', concentration 10) was 8%, the “% inhibition ApPOL 90'” value (DRC-2, 90', concentration 20) was 18% and the “% inhibition ApPOL 90'” value (DRC-2, 90', concentration 40) was 26%. For the same molecule, the “% inhibition ApPOL 90'” value (DRC-2, 90', concentration 80) was 54%, the “% inhibition apPOL 180'” value (DRC-2, 180', concentration 2.5) was -3% and the “% inhibition apPOL 180'” value (DRC-2, 180', concentration 5) was -3.45%. The “% inhibition apPOL 180'” value (DRC-2, 180', concentration 10) was 0.193%, the “% inhibition apPOL 180'” value (DRC-2, 180', concentration 20) was 7.49% and the “% inhibition apPOL 180'” value (DRC-2, 180', concentration 40) was 14%. For the same molecule, the “% inhibition apPOL 180'” value (DRC-2, 180', concentration 80) was 45%, the “% inhibition Apol 40'” value (conc 20 (unit not given), 40', DRC-2) was 26% and the “% inhibition ApPOL 90'” value (conc 40 (unit not given), 90', DRC-2) was 26%. The “DNA Pol” value (primary screen hit value, DNA Pol (186 hits)) was 85.
